Assay results as given in patent US10894811B2, “Peptide inhibitors of calcium channels” (The University of North Carolina at Chapel Hill, priority 2016, dated 2021).
“Also recorded” adds a separate entry of the source.

How the values were obtained:
[1] = test system: house dust mite-exposed mouse; test: House dust mite allergy model, bronchoalveolar lavage cell counts; format: in vivo; details: SPLUNC1−/− mice, HDM challenge, day 17
Protocol: Nasal instillation of α6 peptides to mice: SPLUNC1^(−/−) mice were exposed to 2 μg house dust mite extract in 40 μl of PBS intranasally on days 0 and day 7. After this time, they were again challenged intranasally with 20 μg HDM in 40 μl of PBS from day 14 to day 16. We Then 320 μM of the short α6 peptide was added intranasally once per day on day 15 and on day 16 and the animals sacrificed on day 17. Bronchoalveolar lavage total and differential cell counts were performed using a Kwik-Diff™ Stain Kit (Thermo Scientific). After sacrificing the animals, blood was obtained by cardiac puncture and plasma was taken by spinning down whole blood. Serum HDM-specific antibody levels were measured using an enzyme-linked immunosorbent assay (ELISA). Briefly, plates were coated overnight with 0.01% HDM in PBS and blocked with 1% BSA in PBS before the addition of serum samples that had been diluted 1:10 in blocking buffer and standards for 1 h. Plates were washed 6× with PBS containing 0.05% Tween-20 before incubation with biotinylated anti-mouse IgE (Pharmingen) at a concentration of 2 μg/ml for 1 h. Plates were washed an additional six times, streptavidin-HRP (R&D Systems) was added for 30 min and the amount of bound HDM-specific antibody was determined using TMB substrate (Thermo Scientific). To test whether α6 peptides were efficacious in vivo, a well-characterized murine allergy model was used, the house dust mite-exposed mouse (Wu T et al., Nature Communications, 2017). Since SPLUNC1^(−/−) mice have asthma-like symptoms including spontaneous inflammation and airway hyperreactivity (Wu T et al., Nature Communications, 2017; Thaikoottathil et al., Am. J. Respir. Cell Mol. Biol. 47:253 (2012)), SPLUNC1^(−/−) mice were exposed to 20 μg HDM intranasally on day 0 and […]. After this time, they were challenged with 20 μg HDM intranasally from day 14 to day 17. […] of the short α6 peptide was administered intranasally once per day on day 15 and on day 16 and sacrificed the animals were sacrificed on day 17. Bronchoalveolar lavage was performed and total and differential cell counts performed (FIG. 15).

[2] = test system: house dust mite-exposed mouse; test: House dust mite allergy model, HDM-specific IgE by ELISA; format: in vivo; details: SPLUNC1−/− mice, HDM challenge; α6 peptide intranasally day 15 and day 16; serum on day 17
Protocol: Nasal instillation of α6 peptides to mice: SPLUNC1^(−/−) mice were exposed to 2 μg house dust mite extract in 40 μl of PBS intranasally on days 0 and day 7. After this time, they were again challenged intranasally with 20 μg HDM in 40 μl of PBS from day 14 to day 16. We Then 320 μM of the short α6 peptide was added intranasally once per day on day 15 and on day 16 and the animals sacrificed on day 17. Bronchoalveolar lavage total and differential cell counts were performed using a Kwik-Diff™ Stain Kit (Thermo Scientific). After sacrificing the animals, blood was obtained by cardiac puncture and plasma was taken by spinning down whole blood. Serum HDM-specific antibody levels were measured using an enzyme-linked immunosorbent assay (ELISA). Briefly, plates were coated overnight with 0.01% HDM in PBS and blocked with 1% BSA in PBS before the addition of serum samples that had been diluted 1:10 in blocking buffer and standards for 1 h. […] Plates were washed an additional six times, streptavidin-HRP (R&D Systems) was added for 30 min and the amount of bound HDM-specific antibody was determined using TMB substrate (Thermo Scientific). […] Using the same SPLUNC1^(−/−) mice/HDM challenge as described in FIG. 15, serum was obtained on day 17 and IgE measured by ELISA.

hASMCs = test: Calcium imaging using fura-2 (thapsigargin-induced Ca2+ signaling); format: cell-based, human; details: for thapsigargin (TG)-induced Ca2+ flux (peak fura-2 ratio change): human ASMCs, co-incubated 1 h; for ability to suppress Ca2+ signaling, SPLUNC1 mutants/peptides: ASMCs pre-incubated with truncated SPLUNC1 peptides (FIG. 4H)
Protocol: Calcium imaging: Calcium imaging using fura-2 was adapted from a previous published protocol with minor modifications (Sheridan et al., J. Biol. Chem. 288:33509 (2013)). Briefly, hASMCs were loaded with 2 μM fura-2 AM (Invitrogen) and serosal media from HBEC cultures or recombinant SPLUNC1 at 37° C. for 1 h. Cultures were washed with a standard Ringer's solution (101 mM NaCl, 12 mM NaHCO3, 1.2 mM MgCl2, 1.2 mM CaCl2, […], 24 mM HEPES, 10 mM glucose, pH 7.4) or with Ca^2+-free Ringer's solution as indicated. Cultures were then placed in the Ringer's solution, and images were collected with a 40×1.4 NA oil objective on a Nikon Ti-S inverted microscope. Fura-2 fluorescence was acquired alternately at 340 and 380 nm (emission >450 nm) using LUDL filter wheels, obtained with an Orca FLASH 4.0 CMOS camera (Hammamatsu), and controlled with HCImageLive software. Cell bodies were identified as individual regions of interest (ROIs). Background subtraction was performed using a region without the cell. Signals were converted to relative changes (F/F0) where F0 was the ratio of the average fluorescent intensity (340/380) of ROIs at 0 time point. A total of 20 cells/coverslip were recorded. ΔF/F0 represents average peak fluorescent intensity changes of three independent experiments.

DITLVHDIVNMLIHG (listed as Homo sapiens) [SEQ ID NO:3, amino acids 235-249 of human SPLUNC1]
eosinophil influx (bronchoalveolar lavage) ([1]; peptide 320 μM / 320 μM intranasally once per day on day 15 and day 16): decreased | bronchoalveolar lavage total cell count ([1]; peptide 320 μM / 320 μM intranasally once per day on day 15 and day 16, listed as short α6 peptide): significantly reduced | bronchoalveolar lavage total cell count ([1]; peptide 320 μM / 320 μM intranasally once per day on day 15 and day 16, listed as α6 peptide): reduce inflammatory cell counts | neutrophil influx (bronchoalveolar lavage) ([1]; peptide 320 mM / 320 μM intranasally once per day on day 15 and day 16): decreased | plasma (serum) HDM-specific IgE levels [2]: significantly reduced; also recorded: reduce blood IgE levels

DITLVHDIVNMLIHGLQFVIKV (listed as Homo sapiens) [SEQ ID NO:2, amino acids 235-256 of human SPLUNC1]
thapsigargin (TG)-induced Ca2+ flux (peak fura-2 ratio change) (hASMCs): inhibited | thapsigargin (TG)-induced Ca2+ flux (peak fura-2 ratio change) (hASMCs; listed as SPLUNC1 derived peptide): inhibits thapsigargin-induced Ca^2+ release

S18: N-terminal S18 region of SPLUNC1, its ENaC regulatory domain; synthesized peptide (GGLPVPLDQTLPLNVNPA) [reference compound]
ability to suppress Ca2+ signaling, SPLUNC1 mutants/peptides (hASMCs): did not inhibit SOCE

B1: mouse SPLUNC1: mouse SPLUNC1 protein (protein)
chain: QLAGLPLPLGQGPPLPLNQGPPLPLNQGQLLPLAQGLPLAVSPALPSNPTDLLAGKFTDALSGGLLSGGLLGILENIPLLDVIKSGGGNSNGLVGGLLGKLTSSVPLLNNILDIKITDPQLLELGLVQSPDGHRLYVTIPLGLTLNVNMPVVGSLLQLAVKLNITAEVLAVKDNQGRIHLVLGDCTHSPGSLKISLLNGVTPVQSFLDNLTGILTKVLPELIQGKVCPLVNGILSGLDVTLVHNIAELLIHGLQFVIKV
ability to suppress Ca2+ signaling, SPLUNC1 mutants/peptides (hASMCs): Inhibition was not different
